Assay results taken from PubChem BioAssay (NCI).
Values joined by “and” are separate entries in the source; they are usually repeats but may differ in a detail not shown here. Identical values can stand only once.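 Where inhibition never reached the appropriate level, the endpoint shown equals the highest concentration tested. Otherwise, values were interpolated linearly from a five-concentration, 48-hour dose response in 96-well plates. Abbreviation: GI50, concentration required for 50% inhibition of growth. The concentration for full growth arrest is given as TGI.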

System: MDA-MB-468 breast
Assay: growth of human tumour cells (NCI), 48 h

Row | SMILES | GI50 | TGI
1 | O=C1C(N2CCN(c3ccccc3)CC2)=C(Cl)C(=O)c2ncccc21 | 1590 nM | 3160 nM
2 | Cc1cc(-c2ccccc2)c(C)n1Cc1ccc(Cl)cc1 | 1420 nM | 7540 nM
3 | CC1=C[C@H]2c3c(c(O)c(O)c4oc5cc(O)cc(O)c5c(=O)c34)[C@H](c3cc(O)c(O)c4oc5cc(O)cc(O)c5c(=O)c34)[C@H]2C(C)(C)C1 | 2070 nM | 5670 nM and 6250 nM
4 | O=C1NC(=O)c2c1c1c3ccccc3ccc1c1[nH]c3ccc(Br)cc3c21 | 1560 nM | 3990 nM
5 | Cc1cc2nc3ccc(N=Nc4ccc(N(C)C)cc4)cc3n(-c3ccccc3)c-2cc1=N | 19.5 nM | 199 nM
6 | COc1ccc(N2CCN(CC(=O)N3CCN(c4nnc(-c5ccccc5)c(-c5ccccc5)n4)CC3)CC2)cc1 | 2440 nM | 12800 nM
7 | Cc1ccc2c(n1)C(=O)C(Cl)=C(Nc1cccc(C(C)C)c1)C2=O | 1200 nM | 2610 nM
8 | Cc1cc(N(CCCNc2ccnc3cc(Cl)ccc23)Cc2cccs2)nc(Cl)n1 | 853 nM | 5740 nM
9 | COc1ccc(/C=C/c2nc(N3CCOCC3)c3cc(F)c(F)cc3n2)cc1OC | 748 nM | 8030 nM
10 | O=C(Cc1ccc(/C=C/C(=O)c2ncc[nH]2)cc1)Nc1ccc(Br)cc1 | 1420 nM | 4090 nM
11 | CC(C)(C)c1ccc(C(=O)N/N=C/c2ccc(O)cc2O)cc1 | 396 nM | 2240 nM
12 | COc1cc(C(=O)/C=C/c2c(-c3ccc(F)cc3)nc3sccn23)cc(OC)c1OC | 2810 nM | 13600 nM
13 | O=C1C2C(C(=O)[N]1[Hg][c]1ccccc1)C1(Cl)C(Cl)=C(Cl)C2(Cl)C1(Cl)Cl (configuration not stated) | 233 nM | 728 nM
14 | COc1ccc(C(=O)Nc2ncc(Cc3ccc(F)cc3)s2)cc1 | 362 nM | > 100000 nM
15 | c1ccc(Cn2cc3c(c2)-c2oncc2CC3)cc1 | 331 nM | –
16 | NC(=O)Nc1ccc2ncnc(Nc3ccc(Cl)cc3)c2c1 | 1430 nM | 8280 nM
17 | c1ccc(-c2n(Cc3ccc4ccccc4n3)c3ccccc3[n+]2Cc2ccc3ccccc3n2)cc1 | 105 nM | 512 nM
18 | O=C1OCC2=C1C(c1cccc(F)c1)c1cc3c(cc1N2CCO)OCCO3 (configuration not stated) | 125 nM | –
19 | COC(=O)[C@]12CC[C@@H](C)[C@H](C)[C@@H]1C1=CC[C@@H]3[C@@]4(C)C(c5ncon5)=C[C@@](C)(CO)C4=CC[C@@]3(C)[C@]1(C)CC2 | 1950 nM | 3800 nM
20 | O=C1CC(c2ccccc2)Cc2nc3ccc(Cl)cc3cc21 (configuration not stated) | 2860 nM | > 26100 nM
21 | C[C@@H]1CN(Cc2ccc(/C=C/c3n[nH]c4ccc5nc(-c6cn[nH]c6C(F)(F)F)c6c(c5c34)CCCC6)cc2)C[C@H](C)O1 | 5890 nM | 22200 nM
22 | COc1cc2c3c(cc4c5c(ccc4c3c1OC)OCO5)N(CCN(C)C)C2=O | 73.1 nM | 412 nM
23 | CCOC(=O)Nc1nc2c(F)c(F)c(F)cc2s1 | 53900 nM | > 100000 nM
24 | C=C(C=O)[C@@H]1CC[C@]2(C)[C@H](CC=C3[C@H]4[C@@H](C)[C@H](C)CC[C@]4(C(=O)OC)CC[C@]32C)[C@@]1(C)CCC#N | 1600 nM | 3240 nM

Row | SMILES | GI50 | TGI
25 | NC1=CC(=O)C(=O)c2cccnc21 | 10600 nM | 22500 nM
26 | Cc1ccc(C(=O)Nc2ccc(CN3CCN(C)CC3)c(C(F)(F)F)c2)cc1C#Cc1cncc2ncccc12 | 1460 nM | 18500 nM
27 | CN1CCN(c2nc(-c3csc(-c4ccccc4)n3)cc3ccccc23)CC1 | 1740 nM | 4010 nM
28 | Cc1cc(C)cc(Nc2nccc(-c3c(-c4ccc(F)cc4)ncn3C3CCNCC3)n2)c1 | 1140 nM | 2760 nM
29 | O=C1Nc2ccccc2C12CC(c1ccccc1)=NN2 (configuration not stated) | 6960 nM | > 100000 nM
30 | Oc1c(I)cc(I)cc1CNCCCN(Cc1ccccn1)Cc1ccccn1 | 1010 nM | 2340 nM
31 | COc1ccc(-c2nnc3n(C)c(=O)c4ccccc4n23)cc1O | 1210 nM | 14000 nM
32 | CCN(CC)c1ccc(/C=C/C(=O)c2cccc(NS(C)(=O)=O)c2)cc1 | 3840 nM | > 100000 nM
33 | O=C(O)c1cn(C2CC2)c2cc(N3CCN(S(=O)(=O)c4ccc(Cl)c(Cl)c4)CC3)c(F)cc2c1=O | 2240 nM | 6890 nM
34 | Cn1cc(-c2csc(-c3cn(CCN4CCOCC4)c4ccc(F)cc34)n2)c2cccnc21 | 2200 nM | 8590 nM
35 | COc1ccc2c(c1)c(CC(=O)[Se]CCC#N)c(C)n2C(=O)c1ccc(Cl)cc1 | 2500 nM | 6930 nM
36 | COc1cc(C2c3cc4c(cc3C3OC(=O)C2C3CO)OCO4)cc(OC)c1OC (configuration not stated) | < 10 nM | > 100000 nM
37 | COCCNc1ccc2ncc(C#Cc3cncc(C(=O)Nc4ccc(CN5CCN(C)CC5)c(C(F)(F)F)c4)c3)n2n1 | 101 nM | 260 nM
38 | CC(=O)OC1CCC2(C)C(CCC3C2CCC2(C)C(C4=CC(=O)OC4)CCC32)C1 (configuration not stated) | 5260 nM | 44900 nM
39 | O=C(Cc1ccccc1)Nc1nnc(CCSCCc2nnc(NC(=O)Cc3ccccc3)s2)s1 | 36000 nM | > 100000 nM
40 | Nc1c(C(=O)Nc2cccc3ccccc23)sc2nc3c(cc12)CCCC3 | 327 nM | > 100000 nM
41 | O=C(c1ccc(O)cc1)c1ccc(C(=O)c2ccc(O)cc2)cc1 | 6500 nM | > 100000 nM
42 | Clc1ccccc1-c1nc2ccccc2[nH]1 | 37000 nM | > 100000 nM
43 | COc1cc(Nc2ncc3c(n2)-c2ccc(Cl)cc2C(c2c(F)cccc2OC)=NC3)ccc1C(=O)O | 45.6 nM | 19900 nM
44 | Cc1cc[c-]cc1.Fc1c[c-]c(-c2ccccn2)c(F)c1.N#CCC[PH+](CCC#N)c1ccccc1.[Pt+2] | 2880 nM | 9110 nM
45 | COC(=O)Nc1nc2c(OC)c(OC)c(OC)cc2[nH]1 | 14300 nM | > 77300 nM
46 | C=C(C)[C@@H]1CC[C@]2(COS(C)(=O)=O)CC[C@]3(C)[C@H](CC[C@@H]4[C@@]5(C)CCCNC(C)(C)[C@@H]5CC[C@]43C)[C@@H]12 | 1750 nM | 3230 nM
47 | CC(C)[C@@H](C(=O)O[C@@H]1/C=C/C(=O)O[C@@H](C)CCC/C=C/[C@@H]2C[C@H](O)C[C@H]21)[N+](C)(C)C | > 100000 nM | > 100000 nM
